One substance from patent publication US9023987B2, “Cell-permeable peptide” (Seoul National University R&DB Foundation, priority 2010, dated 2015) can be followed below.

Holding throughout (type): cell-based
Data set [1] deals with human mesenchymal stem cells (hMSC). Description: Cytotoxicity / cell proliferation by quantitative BrdU assay. Details: dose or concentration left out as unconfirmed. To be noted: 24, 48, and 72 hours, FIG. 6. As for the experimental part:
In order to confirm whether or not cell proliferation is affected by potential toxicity when the cell permeable peptide-bone differentiation inducing sequence conjugate and control domains are cultured with hMSC, a degree of cell proliferation was analysis by ELISA using BrdU. Since BrdU was introduced in chromosome instead of deoxy thymidine triphosphate (dTTP) at the time of DNA replication during a proliferation process of hMSC, a degree of introduction of BrdU may reflect a degree of proliferation of hMSC.
First, After 1×10^3 human Mesenchymal Stem cells (hMSC) were plated into each well of 96-well plate, the degree of introduction of BrdU, that is, the degree of proliferation of hMSC was measured using a cell proliferation ELISA kit (BrdU (colorimetry); Boehringermanheim, Germany). Simply describing this method, the cells were treated with the cell permeable peptide-bone differentiation inducing sequence conjugate synthesized by the method in Example 1 and the domains of Example 2 at a concentration of […] and cultured in medium for forming hard tissue for 24, 48, and 72 hours. […] of BrdU (5-bromo-2′-deoxyuridine) was added to each of the groups before 24 hours of each culture time and further cultured for 24 hours. […] The reaction was terminated by 1N H2SO4, and then absorbance was measured using the ELISA reader (Bio-Tek, USA) at 450 nm.
A general note: Uptake of a labelled nucleoside into DNA is a usual measure of proliferation.

For data set [2] the test system is unchanged. Briefly: Cell permeability by fluorescence imaging (confocal scanning microscope). To be noted: FITC/fluorescence-labeled, FIG. 3A, FIG. 7. As for the experimental part:
The domains synthesized in Example 1 and Comparative Examples 1 and 2 were labeled with a fluorescent material in order to measure cell permeability. 10 equivalents of fluorescein isothiocyanate (FITC) was bound to N-terminals of the synthesized domains by using triethylamine (1 ml per 1 g of resin). The synthesis of the peptide was confirmed by measuring the molecular weight thereof through MALDI-TOF.
In order to measure the cell permeability of the cell permeable peptide-bone differentiation inducing sequence conjugate, after sterile slide glass was input in a 6-well plate and 2×10^4 human mesenchymal stem cells (hMSC) were plated in each well, the cells were cultured in a general medium for 20 hours (overnight incubation). Then the cells was cultured in an hMSC basal medium (MSCBM, LONZA, USA) containing 0.5% fetal bovine serum (FBS, GIBCO, USA) for 20 hours (overnight starvation). […] fluorescence labeled cell permeable peptide-bone differentiation inducing sequence conjugate and […] fluorescence labeled bone differentiation inducing sequence that were obtained by binding FITC (SIGMA, USA) N-terminals of the cell permeable peptide-bone differentiation inducing sequence conjugate synthesized by the method in Example 1 and the domain in Comparative Example 2 to synthesize the fluorescence label conjugate and fluorescence label domain, followed by isolation and purification, were injected into each well and washed with phosphate buffer solution (PBS) two times after 20 minutes and 80 minutes of injection. The resultants was observed using a confocal scanning microscope (IX 70, Olympus Co., Tokyo, Japan).

For data set [3] the test system is unchanged. Description: Cell differentiation ability by alkaline phosphatase (ALP) staining. Details: dose or concentration left out as unconfirmed. The note with it: hard tissue-forming medium, 14 days, compared with PBS; FIG. 4A d-f. As for the experimental part: In order to detect alkaline phosphate (ALP), which is a label material shown at the initial stage of bone differentiation, for cell differentiation ability of the cell permeable peptide-bone differentiation inducing sequence conjugate, human mesenchymal stem cells (hMSC) were seeded in a 24-well plate at 1×10^3/well, and then treated with the cell permeable peptide-bone differentiation inducing sequence conjugate synthesized from Example 1 and the bone differentiation inducing sequence of Comparative Example 2 of […] for each, and then incubated in a hard tissue forming medium for 14 days. The hard tissue-forming medium contained an MSCBM medium containing 15% FBS (fetal bovine serum), […] of L-ascorbic acid, 10^−7 M dexamethasone, 1% antibiotic-antimycotic solution, and 10 mM beta-glycerol phosphate. After completion of the incubation, the medium was removed, and then the cells were washed with phosphate buffer solution (PBS) twice. The cells were fixed with 10% NBF at room temperature for 20 minutes, and then washed with a phosphate buffer solution (PBS) twice. Then, staining was conducted using the Alkaline phosphatase detection kit (Millipore, USA) by the experiment method recommended by the manufacture.

On to “NH2-GAPPPADSAP-SSRKKNPNCRRH-C-COONH2 (H-GAPPPADSAPSSRKKNPNCRRHC-NH2; cysteine pairing not given here) [Example 1]”, for which the “effect on cell proliferation (BrdU, DNA synthesis ability compared with PBS)” value in data set [1] is on record as “did not affect the cell proliferation”. Also, the “intracellular fluorescence after 20 minutes (confocal)” value in data set [2] (20 minutes) is listed as “fluorescent particles were observed in the cytoplasm”. Further, in data set [2] (80 minutes), the “intracellular fluorescence after 80 minutes (confocal)” value was “clearly observed in the cytoplasm and nucleus”. The “differentiation into osteoblast, alkaline phosphatase staining” value in data set [3] is reported as “relatively strong staining degree of alkaline phosphatase”.
